{
  "source": "patent US20090281143A1",
  "about": "“Dose Reduction of a Cannabinoid CB1 Receptor Antagonist in the Treatment of Overweight or Obesity” (N-Gene Research Laboratories, Inc., priority 2007, published 2009)",
  "assay": "Inhibition of body weight gain in high fat diet exposed mice",
  "settings": "for weight gain in relation to that of the control group fed with standard laboratory chow: excess over chow control",
  "procedure": "OF-1 female mice weighing about 18-20 g at the beginning of the experiment were used in the study. […] The high fat diet consisted of palatable food that contained 50% fat. The group on standard laboratory chow was also treated with vehicle. Treatment was performed with all of the drugs, orally, at 5 ppm. The weight of the animals was measured weekly.",
  "data": [
    {"smiles": "Cc1c(C(=O)NN2CCCCC2)nn(-c2ccc(Cl)cc2Cl)c1-c1ccc(Cl)cc1", "note": "[rimonabant, N-piperidino-5-(4-chlorophenyl)-1-(2,4-dichlorophenyl)-4-methylpyrazole-3-carboxamide]", "values": [
      {"measurement": "Body weight gain in g after 2 weeks", "setting": "rimonabant 2 mg/kg daily oral, after 2 weeks", "result": 10.6, "unit": "g"},
      {"measurement": "Body weight gain in g after 3 weeks", "setting": "rimonabant 2 mg/kg daily oral, after 3 weeks", "result": 14.1, "unit": "g"},
      {"measurement": "weight gain in relation to that of the control group fed with standard laboratory chow", "setting": "rimonabant 2 mg/kg, after 2 weeks", "result": 22, "unit": "%"},
      {"measurement": "weight gain in relation to that of the control group fed with standard laboratory chow", "setting": "rimonabant 2 mg/kg, after 3 weeks", "result": 33, "unit": "%"},
      {"measurement": "Body weight gain in g after 2 weeks", "setting": "rimonabant 10 mg/kg daily oral, after 2 weeks", "result": 10.2, "unit": "g"},
      {"measurement": "Body weight gain in g after 3 weeks", "setting": "rimonabant 10 mg/kg daily oral, after 3 weeks", "result": 13.0, "unit": "g"},
      {"measurement": "weight gain in relation to that of the control group fed with standard laboratory chow", "setting": "rimonabant 10 mg/kg, after 2 weeks", "result": 17, "unit": "%"},
      {"measurement": "weight gain in relation to that of the control group fed with standard laboratory chow", "setting": "rimonabant 10 mg/kg, after 3 weeks", "result": 22.6, "unit": "%"}
    ]}
  ]
}
